Values quoted from earlier work as cited in article PMC4871512, “Drug-Based Lead Discovery: The Novel Ablative Antiretroviral Profile of Deferiprone in HIV-1-Infected Cells and in HIV-Infected Treatment-Naive Subjects of a Double-Blind, Placebo-Controlled, Randomized Exploratory Trial” (PLoS ONE, 2016).

Tests used:
[1] = system: HIV-infected cell lines and HIV-infected primary cells; details: cited from earlier work
DOHH = system: DOHH; design: method as in PMID 12115536; details: clinically relevant concentrations; cited from earlier work
HIV-1 [2] = system: HIV-1; design: method as in PMID 9715844; details: cited from earlier work
[3] = system: productively infected macrophages; design: method as in PMID 7973634; details: cited from earlier work
human or mouse epithelia = system: human or mouse epithelia; design: method as in PMID 24086341; details: concentrations that ablate yeast and HIV-infected cells; cited from earlier work
HIV-1 [4] = system: HIV-1; design: method as in PMID 8648207, PMID 9498441, PMID 9952363; details: after 12 weeks on monotherapy; cited from earlier work
HIV-1 [5] = system: HIV-1; design: method as in PMID 8793010; details: culture; cited from earlier work
[6] = clinically relevant concentrations

In the case of `CC(=O)N(O)CCCCCNC(=O)CCC(=O)N(O)CCCCCNC(=O)CCC(=O)N(O)CCCCCN` [deferoxamine], the “ablation of HIV-infected cells” value [1, 6] is given as “does not ablate HIV-infected cells”, the “antiretroviral activity in culture” value [1, 6] is given as “does not display antiretroviral activity in culture” and the “suppression of DOHH activity” value (DOHH) is given as “does not achieve maximal suppression of DOHH activity”. For the same compound, the “dose-related antiretroviral effect in persons living with HIV-1” value (HIV-1 [2]) was “does not display a dose-related antiretroviral effect”.
For `NC(=O)NO` [hydroxyurea], the “HIV-1 DNA” value [3] is listed as “depleted HIV-1 DNA”, the viral breakthrough [3] is listed as “blocked breakthrough during three weeks of treatment” and the “viral rebound after cessation” value [3] is listed as “did not allow rebound after cessation”.
For `Cc1cc(C2CCCCC2)n(O)c(=O)c1` [ciclopirox, 6-cyclohexyl-1-hydroxy-4-methylpyridin-2[1H]-one], the “off-drug re-emergence of HIV-1 RNA synthesis, compared with deferiprone” value ([1]; ciclopirox at 30 μM) is given as “gave similar results”, the “antiretroviral activity of the paired 1,2-HOPO chelators” value [1] is given as “antiretrovirally active” and the “viral breakthrough during monotherapy” value ([1]; up to 5 weeks of monotherapy) is given as “neither allowed breakthrough”. The “acute toxicity at human or mouse epithelia” value (human or mouse epithelia) was “does not cause acute toxicity”.
In the case of `Cc1cn([C@H]2C[C@H](N=[N+]=[N-])[C@@H](CO)O2)c(=O)[nH]c1=O` [zidovudine], the viral load decline (HIV-1 [4]) is listed as -0.3 log10 and the “time to viral breakthrough during monotherapy” value (HIV-1 [5]) is listed as no less than 4 days.
In the case of `NC(Cn1ccc(=O)c(O)c1)C(=O)O` (stereo not drawn) [mimosine], the “ribosomal presence of gag mRNA, amount of intra- and extracellular p24, budding of viral particles” value ([1]; treated HIV-infected cells) is given as “suppress”.
For `Cc1ccnc2c1NC(=O)c1cccnc1N2C1CC1` [nevirapine], the “time to viral breakthrough during monotherapy” value (HIV-1 [5]) is listed as no less than 4 days.
